Results taken from PMC8961527, “Protein Binding of Benzofuran Derivatives: A CD Spectroscopic and In Silico Comparative Study of the Effects of 4-Nitrophenyl Functionalized Benzofurans and Benzodifurans on BSA Protein Structure” (Biomolecules, 2022).

Legend:
[1] = molecular target: T1, bovine serum albumin (BSA) (Bos taurus, UniProt P02769); assay: intrinsic tryptophan fluorescence quenching titration (apparent kD); supported by CD spectra and CD melting (ΔTm −[…] °C); format: binding
T1 construct: gene ALB

[2] = molecular target: T1, bovine serum albumin (BSA); assay: intrinsic tryptophan fluorescence quenching titration (apparent kD); supported by CD spectra and CD melting (ΔTm +[…] °C); format: binding

T1 sequence (P02769 25-607): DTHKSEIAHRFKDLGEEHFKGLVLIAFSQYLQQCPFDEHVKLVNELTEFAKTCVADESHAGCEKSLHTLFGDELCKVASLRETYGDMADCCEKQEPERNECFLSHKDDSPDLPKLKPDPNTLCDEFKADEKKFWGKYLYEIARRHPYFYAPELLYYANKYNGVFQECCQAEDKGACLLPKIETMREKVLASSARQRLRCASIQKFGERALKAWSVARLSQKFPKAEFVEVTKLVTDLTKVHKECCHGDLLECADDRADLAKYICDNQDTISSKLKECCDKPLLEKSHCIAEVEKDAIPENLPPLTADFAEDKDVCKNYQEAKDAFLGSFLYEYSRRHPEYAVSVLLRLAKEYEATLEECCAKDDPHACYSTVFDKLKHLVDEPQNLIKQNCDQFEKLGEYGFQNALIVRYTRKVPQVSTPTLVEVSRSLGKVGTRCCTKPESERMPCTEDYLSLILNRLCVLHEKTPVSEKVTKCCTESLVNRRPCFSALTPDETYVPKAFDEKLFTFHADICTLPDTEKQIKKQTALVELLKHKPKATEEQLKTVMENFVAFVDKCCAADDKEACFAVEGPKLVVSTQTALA

Work on `CCCCOC(=O)c1c(N)oc2c(-c3ccc([N+](=O)[O-])cc3)c3c(C(=O)OCCCC)c(N)oc3cc12` [BDF1] yielded a Kd [1] of 142 ± 64.6 nM.

`CCCCOC(=O)c1c(N)oc2ccc(O)c(-c3ccc([N+](=O)[O-])cc3)c12` [BF1] showed a Kd [2] of 28.4 ± 10.1 nM.
